Where two headings read alike, the source gives them in different places.
Key:
human subjects = settings: cited from earlier work; for AE (%) / SAE (%): healthy volunteers
[1] = cited from earlier work
[2] = system: mature stage V gametocytes (NF54 strain); assay: High-throughput screening: killing effect by MitoTracker staining, primary screening at 1.11 µM and dose-response analysis; type: cell-based, Plasmodium falciparum; settings: stage V gametocytes NF54, 24 h, dose-response analysis, N/A = not active in dose-response analysis, read-out: Killing IC50
Procedure: (§1) Screening was conducted as previously described. Briefly, mature stage V gametocytes (NF54 strain) were cultured in vitro, then exposed to the explored compounds and filtered thereafter through layers of microspheres (microsphiltration)[25],[28]. Stiffening activity was determined by comparing gametocytemia up and downstream from the microsphere layers after filtration of drug-exposed gametocytes in 384-well plates using a vacuum manifold. Gametocytemia was assessed using DNA (Sybr Green) and erythrocyte membrane (CellMask) staining. Killing effect was assessed by MitoTracker staining. We screened two small libraries, specifically the Pathogen Box from the Medicine for Malaria Venture and the Kinase Inhibitors Box from GSK (400 and 350 compounds, respectively, Fig. 1A, B), and furthermore the larger ReFrame repurposing library (12,805 compounds, Fig. 1C).
(§2) The Pathogen Box library (400 compounds, provided by MMV-Medicine for Malaria Ventures, Geneva, Switzerland), the Kinase Inhibitors Box library (350 compounds, provided by GSK-Glaxo SmithKline DDW Unit, Tres Cantos, Spain), and the ReFrame library (12,805 compounds provided by the California Institute for Biomedical Research-Calibr, La Jolla, CA, USA) were used according to the providers’ instructions. DMSO-solubilized compounds (10 mM stock concentration) were loaded in 384-well plates (Seahorse, cat. no. 201035−100). Two columns were left empty for the controls. For each compound, 5 nL were pre-spotted in a single well to reach a final concentration of 1.11 μM. The final volume for each well was 45 μl. Controls were prepared as follows: 22.5 nL of DMSO were loaded in 16 wells as negative controls (0.05% final concentration); 22.5 nL of NITD609 (provided by MMV, Geneva, Switzerland) 1 mM were loaded in 8 wells (0.5 μM final concentration), 17 nL of Calyculin A (Sigma, cat. no. C5552) […] were loaded in 6 wells (75 nM final concentration) and 225 nL of Gentian Violet (MolPort, cat. no. 002-133-551) 10 mM were loaded in the remaining 2 wells (50 μM final concentration). Plates were prepared in triplicate for the Pathogen Box and sextuplicate for the Kinase Inhibitors Box.
(§3) Plasmodium falciparum NF54 strain parasites (used for screening campaign) were cultured at 4% hematocrit in RBCs from informed blood donors (blood group A) as previously described. Parasites were taken from the -80 °C freezer, then rapidly melt for 1 minute in a 37 °C water bath. A saline solution was gently added to avoid the lysis. Firstly, NaCl dissolved at 12% in distilled water (1/5 of the volume measured in the cryovial) and then NaCl dissolved at 1.6% (9 times the cryovial’s volume). After that, fresh RBCs were added to allow parasites re-growth. Infected RBCs were kept in RPMI medium (Sigma-Aldrich, cat. no. R4130), supplemented with 10% of decomplemented human serum, hypoxanthine 50 mg/l (Sigma-Aldrich, cat. no. H9636). Biobank of Castilla y Leon and Centro de Transfusiones de Madrid as providers of human red blood cell concentrates. The production of gametocytes was induced from a 0.5% ring-stage parasitemia (day 0). Medium was changed daily to induce gametocytes differentiation, as previously described. At day 17, gametocytes were concentrated using a density gradient medium (NycoPrep 1.077, Progen cat. no. 1114550)[27]. Parasitemia was adjusted by FACS (SYBR-Green and MitoTracker double staining, 3–5% targeted). Hematocrit was adjusted to 0.5% by adding fresh RBCs and controlled by manual counting in a Neubauer chamber (Celeromics, cat. no. 717810). Finally, the gametocyte suspension was poured (45 μL/well) into the compound-containing 384-well microplate, then incubated 24 hours both for the screening campaign and the dose-response analysis. Both asexual and sexual stages were cultivated in RPMI 1640 supplemented with 25 mM HEPES, 50 mg/L hypoxanthine, 50 μg/mL gentami-cin, 10% pooled heat-inactivated human serum (A^+).

[3] = system: mature stage V gametocytes (NF54 strain); assay: microbe, parasite or virus in culture; type: cell-based, Plasmodium falciparum
Procedure: as §1, §2, §3

[4] = Hit scoring on safety in human subjects and pharmacokinetics; settings: for Score (PK): peak plasma concentration vs IC50
Excerpt: Hits from the ReFrame library were further selected based on safety, preferably oral administration (high score if oral), and potential availability for widespread use.

HEK293T = settings: cited from earlier work
P.falciparum Dd2 = system: P.falciparum Dd2; design: method as in previously published reports (Table S1 legend); settings: 72 h; results in previous assays; ref previously published reports (Table S1 legend); read-out: 72-h Dd2-SybrGreen PBFS assay IC50; cited from earlier work
HepG2 = settings: cited from earlier work
[5] = 100 mg single dose in combination with sofosbuvir 400 mg, ref CTR20160602
[6] = healthy volunteers, 100 mg single dose in combination with sofosbuvir 400 mg, ref CTR20160602
[7] = stage V gametocytes NF54, 24 h, dose-response analysis, N/A = not active in dose-response analysis, read-out: Stiffening IC50 (retention)
[8] = 50 mg single dose, ref NCT01937975
[9] = healthy volunteers, 50 mg single dose, ref NCT01937975
[10] = 90 mg single dose in combination with sofosbuvir 400 mg, ref CTR20160149
[11] = healthy volunteers, 90 mg single dose in combination with sofosbuvir 400 mg, ref CTR20160149
[12] = Plasmodium falciparum, NF54, 24 h
[13] = Plasmodium falciparum, NF54, 24 h, read-out: Stiffening IC50 (retention)
[14] = read-out: Cellular cytotoxicity assay IC50, HEK293T, 72 h, first value of cell, ref previously published reports (Table S1 legend)
[15] = read-out: Cellular cytotoxicity assay IC50, HepG2, 72 h, second value of cell, ref previously published reports (Table S1 legend)

In the case of `COC[C@H]1C[C@@H](c2ncc(-c3ccc4c(c3)COc3cc5c(ccc6nc([C@@H]7CC[C@H](C)N7C(=O)[C@@H](NC(=O)OC)C(C)C)[nH]c65)cc3-4)[nH]2)N(C(=O)[C@H](NC(=O)OC)c2ccccc2)C1` [Velpatasvir], the “AE (%)” value (human subjects; [5]) is given as 42.9%, the “SAE (%)” value (human subjects; [5]) is given as 0% and the Cmax [1, 6] is given as 584 nM. The t1/2 [1, 6] was 16.8 h.

For `CC(C)[C@H](C(=O)Nc1ccc(C(=O)NO)cc1)c1ccccc1` [AR-42], the IC50 [2] is listed as 1.5 µM, the IC50 [3, 7] is listed as 1.9 µM and the “rate of life-threatening adverse events” value (human subjects; human, in vivo) is listed as greater than 25%. For the same molecule, the “Score (safety)” value [4] was 0 and the “Score (PK)” value [4] was 0.

For `COC(=O)N[C@H](C(=O)N1CCC[C@H]1c1nc(-c2ccc3c(c2)O[C@@H](c2ccccc2)n2c-3cc3cc(-c4c[nH]c([C@@H]5CCCN5C(=O)[C@@H](NC(=O)OC)C(C)C)n4)ccc32)c[nH]1)C(C)C` [Elbasvir], the “AE (%)” value (human subjects; [8]) is listed as 37.5%, the “SAE (%)” value (human subjects; [8]) is listed as 0% and the Cmax [1, 9] is listed as 163 nM. For the same molecule, the t1/2 [1, 9] was 25 h.

In the case of `COC(=O)N[C@H](C(=O)N1CC2(CC2)C[C@H]1c1ncc(-c2ccc3c(c2)C(F)(F)c2cc(-c4ccc5nc([C@@H]6[C@H]7CC[C@H](C7)N6C(=O)[C@@H](NC(=O)OC)C(C)C)[nH]c5c4)ccc2-3)[nH]1)C(C)C` [Ledipasvir], the “safety in pregnant women” value (human subjects) is listed as “can be safely administered to pregnant women”, the “AE (%)” value (human subjects; [10]) is listed as 42.9% and the “SAE (%)” value (human subjects; [10]) is listed as 0%. For the same molecule, the Cmax [1, 11] was 362 nM and the t1/2 [1, 11] was 39.9 h.

In the case of `COC(=O)N[C@H](C(=O)N1CCC[C@H]1C(=O)Nc1ccc([C@@H]2CC[C@@H](c3ccc(NC(=O)[C@@H]4CCCN4C(=O)[C@@H](NC(=O)OC)C(C)C)cc3)N2c2ccc(C(C)(C)C)cc2)cc1)C(C)C` [Ombitasvir], the t1/2 ([1]; human, in vivo) is listed as 21 to 25 h.

For `CCCCCCCCN=c1ccn(CCCCCCCC)cc1` [Pirtenidine], the IC50 [2] is listed as 2.79 µM, the IC50 [3, 7] is listed as 3.65 µM and the IC50 (HEK293T) is listed as 1.48 µM. For the same molecule, the “Score (safety)” value [4] was 0, the “Score (PK)” value [4] was 0 and the IC50 (P.falciparum Dd2) was 0.615 µM. For the same molecule, the IC50 (HepG2) was 0.285 µM.

For `CS(=O)(=O)c1ccc(-c2cnc(N)c(-c3ccc(C(F)(F)F)nc3)c2)cc1` [MMV-390048], the IC50 [2, 12] was 3.86 µM, the IC50 [2] was 3.9 µM and the IC50 [3, 13] was 3.5 µM. The IC50 ([3]; Plasmodium falciparum, NF54, read-out: IC50 (killing and stiffening, given as range)) was 3.5 to 3.9 µM, the “Score (safety)” value [4] was 3 and the “Score (PK)” value [4] was 2 (Peak plasma concentration between 1/3 IC50 and IC50 (Score = 2)). The IC50 (P.falciparum Dd2) was 0.229 µM and the serum peak concentration ([1]; humans, highest 120 mg dose, ref 37 (McCarthy et al 2020)) was 2.8 µM.

In the case of `CN(C)Cc1c(C(=O)NCCOc2ccc(C(=O)NO)cc2)oc2ccccc12` [Abexinostat], the IC50 [2, 12] is given as 2 µM, the IC50 [3, 13] is given as 0.64 µM and the “patients with significant adverse events” value (human subjects; human, in vivo) is given as “more than 15%”. The “Score (safety)” value [4] was 0 and the “Score (PK)” value [4] was 0.

In the case of `CCN(CC)Cc1ccc2cc(COC(=O)Nc3ccc(C(=O)NO)cc3)ccc2c1.Cl.O` [Givinostat hydrochloride], the IC50 [2] is given as 2.1 µM, the IC50 [3, 7] is given as 1.4 µM and the “patients with significant adverse events” value (human subjects; human, in vivo) is given as “more than 15%”. For the same molecule, the “Score (safety)” value [4] was 0 and the “Score (PK)” value [4] was 0.

For `COC(=O)N[C@H](C(=O)N1CCC[C@H]1c1nc(-c2ccc(-c3ccc(-c4c[nH]c([C@@H]5CCCN5C(=O)[C@@H](NC(=O)OC)C(C)C)n4)cc3)cc2)c[nH]1)C(C)C` [Daclatasvir], the Cmax ([1]; human, in vivo, 30 mg) is listed as 945 nM and the t1/2 ([1]; human, in vivo, 30 mg) is listed as 12.4 h.

For `C[C@@H]1O[C@@H](O[C@@H]2C=C3CC[C@@H]4[C@H](CC[C@]5(C)[C@@H](c6ccc(=O)oc6)CC[C@]45O)[C@@]3(C)CC2)[C@H](O)[C@H](O)[C@H]1O` [Proscillaridin], the IC50 ([2]; Plasmodium falciparum) is given as 0.3 µM, the IC50 [3, 13] is given as 0.08 µM and the IC50 (HEK293T; [14]) is given as 0.009 µM. The “Score (safety)” value ([4]; human) was 0, the “Score (PK)” value [4] was 0 and the IC50 (P.falciparum Dd2) was 9.95 µM. The IC50 (HepG2; [15]) was 0.014 µM.

For `COc1ccc(-c2nc(N3CCOCC3)c3sc(CN(C)c4ncc(C(=O)NO)cn4)cc3n2)cn1` [CUDC-907], the IC50 [2, 12] is given as 3.32 µM, the IC50 [3, 13] is given as 1.86 µM and the “rate of life-threatening adverse events” value (human subjects; ref NCT02674750 (CUDC-907), NCT02795819 (AR-42)) is given as greater than 25%. For the same molecule, the IC50 (HEK293T; [14]) was 0.03 µM, the “Score (safety)” value [4] was 0 and the “Score (PK)” value [4] was 0. The IC50 (P.falciparum Dd2) was 0.018 µM and the IC50 (HepG2; [15]) was 0.003 µM.

In the case of `O=C(NO)c1cnc(N2C[C@@H]3[C@H](C2)[C@H]3NCc2ccc3cc(F)ccc3n2)nc1` [CHR-3996], the IC50 [2, 12] is listed as 0.07 µM, the IC50 [3, 13] is listed as 7.23 µM and the IC50 (HEK293T) is listed as 0.728 µM. For the same molecule, the “Score (safety)” value [4] was 0, the “Score (PK)” value [4] was 0 and the IC50 (P.falciparum Dd2) was 0.015 µM. For the same molecule, the IC50 (HepG2) was 0.127 µM.
